The values below come from patent publication US20180325889A1, “IMMUNOREGULATORY AGENTS” (FLEXUS BIOSCIENCES, INC., priority 2014, published 2018).

Molecules are shown by their SMILES.

The target of the test is T1, human IDO1/HEK293 cells (Homo sapiens, UniProt P14902).
T1 construct: expressed in transfected cells
Kind of test: HEK Human IDO-1 cell-based IDO inhibition assay (kynurenine production). Conditions: HEK293 cells stably expressing human IDO1, 20 hours incubation, absorbance at 490 nm; read-out: HEK Human IDO-1 Bio Activity (IDO IC50). In a few lines:
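Stopped with 0.2% TCA, 50 °C 30 min; supernatant mixed with 0.2% Ehrlich reagent, 30 min RT, kynurenine read as absorbance at 490 nm.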

T1 sequence (P14902 whole entry): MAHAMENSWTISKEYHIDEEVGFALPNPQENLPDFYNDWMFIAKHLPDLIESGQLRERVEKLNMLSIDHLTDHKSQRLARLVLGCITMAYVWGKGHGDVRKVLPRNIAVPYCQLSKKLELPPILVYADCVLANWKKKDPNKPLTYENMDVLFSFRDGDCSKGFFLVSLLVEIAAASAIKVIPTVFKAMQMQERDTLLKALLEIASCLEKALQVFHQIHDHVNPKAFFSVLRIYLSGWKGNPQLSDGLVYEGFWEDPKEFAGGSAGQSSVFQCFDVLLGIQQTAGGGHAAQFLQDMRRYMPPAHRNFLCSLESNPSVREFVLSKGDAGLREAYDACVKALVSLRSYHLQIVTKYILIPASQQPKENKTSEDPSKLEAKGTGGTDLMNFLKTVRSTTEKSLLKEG

Regarding `C[C@@H](NC(=O)c1ccc(-n2cccc2)cc1)[C@H]1CC[C@@H](c2ccnc3ccc(F)cc32)CC1` [Example 195, N-((R)-1-(cis-4-(6-fluoroquinolin-4-yl)cyclohexyl)ethyl)-4-(1H-pyrrol-1-yl)benzamide], the half-maximal inhibitory concentration (IC50) (as a rule, the concentration at which inhibition is half-maximal) is less than 50 nM. Consider `C[C@@H](NC(=O)c1ccc(-n2ccnc2)cc1)[C@H]1CC[C@@H](c2ccnc3ccc(F)cc32)CC1` [Example 196, N-((R)-1-(cis-4-(6-fluoroquinolin-4-yl)cyclohexyl)ethyl)-4-(1H-imidazol-1-yl)benzamide], for which the half-maximal inhibitory concentration (IC50) is less than 50 nM.

Consider `CC(NC(=O)c1ccc(Cl)cc1)C1CCC(c2ccnc3ccnn23)CC1` (stereo not drawn) [Example 197, 4-chloro-N-(1-(4-(pyrazolo[1,5-a]pyrimidin-7-yl)cyclohexyl)ethyl)benzamide], for which the half-maximal inhibitory concentration (IC50) was less than 250 nM. As for `C=CC[C@@H](NC(=O)c1ccc(Cl)cc1)[C@H]1CC[C@@H](c2ccnc3ccc(F)cc32)CC1` [Example 198, 4-chloro-N—((R)-1-((1s, 4S)-4-(6-fluoroquinolin-4-yl)cyclohexyl)but-3-en-1-yl) benzamide], the figure is less than 50 nM; as for `C=CC[C@@H](NC(=O)c1ccc(-c2ccccc2)cc1)[C@H]1CC[C@@H](c2ccnc3ccc(F)cc32)CC1` [Example 199, N—((R)-1-((is, 4S)-4-(6-fluoroquinolin-4-yl)cyclohexyl)but-3-en-1-yl)-[1,1′-biphenyl]-4-carboxamide], less than 2000 nM. Turning to `CC(NC(=O)c1ccc(Cl)cc1)C1CCC(c2ccnc(C(F)(F)F)c2)CC1` (stereo not drawn) [Example 211, 4-chloro-N-(1-(4-(2-(trifluoromethyl)pyridin-4-yl)cyclohcxyl)ethyl)benzamide], the IC50 is less than 250 nM. For the compound `CC(NC(=O)c1ccc(Cl)cc1)C1CCC(c2ccc(C(F)(F)F)nc2)CC1` (stereo not drawn) [Example 216, 4-chloro-N-(1-(4-(6-(trifluoromcthyr)pyridin-3-yl)cyclohexyl)ethyl)benzamide], the IC50 is less than 250 nM. The same measure for `Cc1c(C2CCC(C(C)NC(=O)c3ccc(-c4ccccc4)cc3)CC2)ccnc1F` (stereo not drawn) [Example 221, N-(1-(4-(2-fluoro-3-methylpyridin-4-yl)cyclohexyl)ethyl)-[1,1′-biphenyl]-4-carboxamide]: less than 50 nM.

Turning to `CC1(CNC(=O)c2ccc(Cl)cc2)CCN(c2ccnc3ccc(F)cc23)CC1` [Example 226, 4-Chloro-N-((1-(6-fluoroquinolin-4-yl)-4-methylpiperidin-4-yl)methyl)benzamide], the IC50 is less than 2000 nM.

On to `CC1(CNC(=O)c2ccc(Cl)cc2)CCN(c2ccnc(C(F)(F)F)c2)CC1` [Example 227, 4-Chloro-N-((4-methyl-1-(2-(trifluoromethyl)pyridin-4-yl)piperidin-4-yl)methyl)benzamide], for which the concentration for half-maximal inhibition (IC50) is less than 2000 nM. As for `CC1(CNC(=O)c2ccc(-c3ccccc3)cc2)CCN(c2ccnc(C(F)(F)F)c2)CC1` [Example 228, N-((4-Methyl-1-(2-(trifluoromethyl)pyridin-4-yl)piperidin-4-yl)methyl)-[1,1′-biphenyl]-4-carboxamide], the figure is less than 2000 nM. Take `Cc1nnc(-c2ccc(C(=O)N[C@H](C)[C@H]3CC[C@@H](c4ccnc5ccc(F)cc54)CC3)cc2)o1` [Example 232, N—((R)-1-((1s,4S)-4-(6-fluoroquinolin-4-yl)cyclohexyl)ethyl)-4-(5-methyl-1,3,4-oxadiazol-2-yl)benzamide]: the half-inhibitory concentration (IC50) was less than 250 nM.

As to `C[C@@H](NC(=O)c1ccc(-c2cnccn2)cc1)[C@H]1CC[C@@H](c2ccnc3ccc(F)cc32)CC1` [Example 233, N-((R)-1-((1s,4S)-4-(6-fluoroquinolin-4-yl)cyclohexyl)ethyl)-4-(pyrazin-2-yl)benzamide], the IC50 was less than 50 nM. As for `C[C@@H](NC(=O)c1ccc(-c2cncnc2)cc1)[C@H]1CC[C@@H](c2ccnc3ccc(F)cc32)CC1` [Example 234, N-((R)-1-((1s,4S)-4-(6-fluoroquinolin-4-yl)cyclohexyl)ethyl)-4-(pyrimidin-5-yl)benzamide], the figure is less than 50 nM.

As for `C[C@@H](NC(=O)c1ccc(-c2cn(C)cn2)cc1)[C@H]1CC[C@@H](c2ccnc3ccc(F)cc32)CC1` [Example 235, N-((R)-1-((1s,4S)-4-(6-fluoroquinolin-4-yl)cyclohexyl)cthyl)-4-(1-methyl-1H-imidazol-4-yl)benzamide], the IC50 was less than 50 nM. With `COc1nccc(-c2ccc(C(=O)N[C@H](C)[C@H]3CC[C@@H](c4ccnc5ccc(F)cc54)CC3)cc2)n1` [Example 236, N-((R)-1-((1s,4S)-4-(6-fluoroquinolin-4-yl)cyclohexyl)ethyl)-4-(2-methoxypyrimidin-4-yl)benzamide], the IC50 is less than 50 nM. As for `C[C@@H](NC(=O)c1ccc(-c2ccc(S(C)(=O)=O)nc2)cc1)[C@H]1CC[C@@H](c2ccnc3ccc(F)cc32)CC1` [Example 237, N-((R)-1-((1s,4S)-4-(6-fluoroquinolin-4-yl)cyclohexyl)ethyl)-4-(6-(methylsulfonyl)pyridin-3-yl)benzamide], the figure is less than 2000 nM; as for `Cc1ncc(-c2ccc(C(=O)N[C@H](C)[C@H]3CC[C@@H](c4ccnc5ccc(F)cc54)CC3)cc2)s1` [Example 238, N-((R)-1-((1s,4S)-4-(6-fluoroquinolin-4-yl)cyclohexyl)ethyl)-4-(2-methylthiazol-5-yl)benzamide], less than 50 nM. `C[C@@H](NC(=O)c1ccc(-c2cnc(C#N)nc2)cc1)[C@H]1CC[C@@H](c2ccnc3ccc(F)cc32)CC1` [Example 240, 4-(2-cyanopyrimidin-5-yl)-N-((R)-1-((1s,4S)-4-(6-fluoroquinolin-4-yl)cyclohexyl)ethyl)benzamide]: the IC50 was less than 2000 nM. Regarding `COc1nc(-c2ccc(C(=O)N[C@H](C)[C@H]3CC[C@@H](c4ccnc5ccc(F)cc54)CC3)cc2)cs1` [Example 241, N-((R)-1-((1s,4S)-4-(6-fluoroquinolin-4-yI)cyclohexyl)ethyl)-4-(2-methoxythiazol-4-yl)benzamide], the IC50 is less than 50 nM.

For `C[C@@H](NC(=O)c1ccc(-c2ccc(C(C)(C)O)cc2)cc1)[C@H]1CC[C@@H](c2ccnc3ccc(F)cc32)CC1` [Example 242, N-((R)-1-((1s,4S)-4-(6-fluoroquinolin-4-yl)cyclohexyl)ethyl)-4′-(2-hydroxypropan-2-yl)biphenyl-4-carboxamide], the half-inhibitory concentration (IC50) was less than 250 nM. With `C[C@@H](NC(=O)c1ccc(-c2cscn2)cc1)[C@H]1CC[C@@H](c2ccnc3ccc(F)cc32)CC1` [Example 243, N-((R)-1-((1s,4S)-4-(6-fluoroquinolin-4-yl)cyclohcxyl)cthyl)-4-(thiazol-4-yl)benzamide], the IC50 was less than 50 nM. On to `C[C@@H](NC(=O)c1ccc(-c2nnco2)cc1)[C@H]1CC[C@@H](c2ccnc3ccc(F)cc32)CC1` [Example 244, N-((R)-1-((1s,4S)-4-(6-fluoroquinolin-4-yl)cyclohexyl)ethyl)-4-(1,3,4-oxadiazol-2-yl)benzamide], for which the IC50 is less than 50 nM. Turning to `COc1ccc(-c2ccc(C(=O)N[C@H](C)[C@H]3CC[C@@H](c4ccnc5ccc(F)cc54)CC3)cc2)cn1` [Example 245, N-((R)-1-((1s,4S)-4-(6-fluoroquinolin-4-yl)cyclohexyl)ethyl)-4-(6-methoxypyridin-3-yl)benzamide], the half-inhibitory concentration (IC50) was less than 50 nM.

On to `C[C@@H](NC(=O)c1ccc(N2CCOCC2)cc1)[C@H]1CC[C@@H](c2ccnc3ccc(F)cc32)CC1` [Example 246, N-((R)-1-((1s,4S)-4-(6-fluoroquinolin-4-yl)cyclohexyl)ethyl)-4-morpholinobenzamide], for which the IC50 is less than 250 nM. On to `C[C@@H](NC(=O)c1ccc(C2CC2)cc1)[C@H]1CC[C@@H](c2ccnc3ccc(F)cc32)CC1` [Example 247, 4-cyclopropyl-N-((R)-1-((1s,4S)-4-(6-fluoroquinolin-4-yl)cyclohexyl)ethyl)benzamide], for which the IC50 was less than 50 nM.

Take `C[C@@H](NC(=O)c1ccc(C2(C)CC2)cc1)[C@H]1CC[C@@H](c2ccnc3ccc(F)cc32)CC1` [Example 248, N-((R)-1-((1s,4S)-4-(6-fluoroquinolin-4-yl)cyclohexyl)ethyl)-4-(1-methylcyclopropyl)benzamide]: the IC50 is less than 50 nM. On to `C[C@@H](NC(=O)c1ccc(C(F)(F)F)cc1)[C@H]1CC[C@@H](c2ccnc3ccc(F)cc32)CC1` [Example 249, N-((R)-1-((1s,4S)-4-(6-fluoroquinolin-4-yl)cyclohexyl)ethyl)-4-(trifluoromethyl)benzamide], for which the half-inhibitory concentration (IC50) is less than 50 nM. The same measure for `C[C@@H](NC(=O)c1ccc(-c2cnco2)cc1)[C@H]1CC[C@@H](c2ccnc3ccc(F)cc32)CC1` [Example 250, N-((R)-1-((1s,4S)-4-(6-fluoroquinolin-4-yl)cyclohexyl)ethyl)-4-(oxazol-5-yl)benzamide]: less than 50 nM; for `C[C@@H](NC(=O)c1ccc(-c2ncnn2C)cc1)[C@H]1CC[C@@H](c2ccnc3ccc(F)cc32)CC1` [Example 251, N-((R)-1-((1s,4S)-4-(6-fluoroquinolin-4-yl)cyclohexyl)ethyl)-4-(1-methyl-1H-1,2,4-triazol-5-yl)benzamide]: less than 250 nM. Consider `Cc1cnc(-c2ccc(C(=O)N[C@H](C)[C@H]3CC[C@@H](c4ccnc5ccc(F)cc54)CC3)cc2)s1` [Example 252, N-((R)-1-((1s,4S)-4-(6-fluoroquinolin-4-yl)cyclohexyl)ethyl)-4-(5-methylthiazol-2-yl)benzamide], for which the IC50 was less than 50 nM. With `C[C@@H](NC(=O)c1ccc(-c2ncc(C#N)s2)cc1)[C@H]1CC[C@@H](c2ccnc3ccc(F)cc32)CC1` [Example 253, 4-(5-cyanothiazol-2-yl)-N-((R)-1-((1s,4S)-4-(6-fluoroquinolin-4-yl)cyclohexyl)ethyl)benzamide], the IC50 is less than 50 nM.

`CCC(NC(=O)c1ccc(Cl)cc1)[C@H]1CC[C@@H](c2ccnc3ccc(C(F)(F)F)cc32)CC1` (stereo partly drawn) [Example 254, 4-chloro-N-(1-((1s, 4s)-4-(6-(trifluoromethyl)quinolin-4-yl)cyclohexyl)propyl)benzamide]: the IC50 is less than 50 nM.
